Data on 22 molecules can be found in US20240279215A1 (Cytokinetics, Incorporated, priority 2022, published 2024).

The target of this assay is human NAMPT (Homo sapiens (Human), UniProt P43490). Kind of assay: NMN fluorescence biochemical assay (human recombinant NAMPT enzyme assay). The method, boiled down: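 Activation of recombinant human NAMPT (6 nM) was tested with 2.5 mM ATP, 20 μM PRPP and 150 μM nicotinamide in 50 mM HEPES pH 7.2 for 60 min at ambient temperature. NMN was derivatized with acetophenone/KOH/formic acid and read by fluorescence (355/460 nm) after 40 min.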
Sequence of human NAMPT (P43490 whole entry): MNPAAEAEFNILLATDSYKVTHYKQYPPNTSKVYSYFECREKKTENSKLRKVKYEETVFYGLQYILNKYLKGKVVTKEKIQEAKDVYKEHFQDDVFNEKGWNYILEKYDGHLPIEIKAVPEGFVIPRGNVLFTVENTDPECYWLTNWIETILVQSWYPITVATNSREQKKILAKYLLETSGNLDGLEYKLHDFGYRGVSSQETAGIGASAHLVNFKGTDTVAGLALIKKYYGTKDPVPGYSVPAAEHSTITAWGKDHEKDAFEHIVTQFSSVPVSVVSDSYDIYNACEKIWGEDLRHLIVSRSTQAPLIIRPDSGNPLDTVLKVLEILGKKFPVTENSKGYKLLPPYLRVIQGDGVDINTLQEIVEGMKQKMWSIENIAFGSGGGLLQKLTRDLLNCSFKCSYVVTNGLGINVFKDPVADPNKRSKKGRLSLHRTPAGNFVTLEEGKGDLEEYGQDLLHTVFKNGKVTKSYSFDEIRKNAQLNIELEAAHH
As usually defined, the EC50 is the midpoint of the concentration-response curve. Consider `Cc1nn(C)c(C(=O)N(C)Cc2ccc(NC(=O)OCc3ccc(Cl)cc3)cc2)c1C` [Compound 127, (4-chlorophenyl)methyl N-(4-{[N-methyl-1-(2,4,5-trimethylpyrazol-3-yl)formamido]methyl}phenyl)carbamate], for which the “AC1.4 Human” value amounted to 1.00 µM and the EC50 was found to be 7.3 µM.

With `CN(Cc1ccc(NC(=O)OCc2ccc(Cl)cc2)cc1)C(=O)N1CCCC1` [Compound 128, 4-chlorobenzyl (4-((N-methylpyrrolidine-1-carboxamido)methyl)phenyl)carbamate], the “AC1.4 Human” value turned out to be 1.03 µM and the EC50 stood at 4.75 µM.

Take `CC(C)Cn1nccc1C(=O)N[C@@H](C)c1ccc(NC(=O)OCc2ccc(Cl)cc2)cc1` [Compound 129, (4-chlorophenyl)methyl N-{4-[(1S)-1-{[2-(2-methylpropyl)pyrazol-3-yl]formamido}ethyl]phenyl}carbamate]: the “AC1.4 Human” value is 1.03 µM and the EC50 worked out at 2.22 µM.

In the case of `CN(Cc1ccc(NC(=O)OCc2ccc(Cl)cc2)cc1)C(=O)c1cnco1` [Compound 130, (4-chlorophenyl)methyl N-(4-[(N-methyl-1-1,3-oxazol-5-ylformamido)methyl]phenyl}carbamate], the “AC1.4 Human” value worked out at 1.03 µM and the EC50 is 8.13 µM.

For the molecule `CC(C)n1nccc1C(=O)N(C)Cc1ccc(NC(=O)OCc2ccc(Cl)cc2)cc1` [Compound 131, (4-chlorophenyl)methyl N-(4-{[1-(2-isopropylpyrazol-3-yl)-N-methylformamido]methyl}phenyl)carbamate], the “AC1.4 Human” value is 1.05 µM and the EC50 came to 2.55 µM.

As for `Cc1ccc(C(=O)NCc2ccc(NC(=O)OCc3ccc(C(F)F)cc3)cc2)cn1` [Compound 133, (4-(difluoro-13-methyl)phenyl)methyl (4-((6-methylnicotinamido)methyl)phenyl)carbamate], the “AC1.4 Human” value was 1.07 µM and the EC50 was found to be 8.6 µM.

For `COC1CCN(C(=O)N(C)[C@@H](C)c2ccc(NC(=O)OCc3ccc(Cl)cc3)cc2)CC1` [Compound 134, 4-chlorobenzyl (S)-(4-(1-(4-methoxy-N-methylpiperidine-1-carboxamido)ethyl)phenyl)carbamate], the “AC1.4 Human” value came out at 1.07 µM and the EC50 turned out to be 13.7 µM.

As to `COc1cnn(C)c1C(=O)NCc1ccc(NC(=O)OCc2ccc(Cl)cc2)cc1` [Compound 135, (4-chlorophenyl)methyl N-(4-{[(4-methoxy-2-methylpyrazol-3-yl)formamido]methyl}phenyl)carbamate], the “AC1.4 Human” value was 1.07 µM and the EC50 worked out at 3.28 µM.

In the case of `Cc1cnc(C(=O)NCc2ccc(NC(=O)OCc3ccc(Cl)cc3)cc2)cn1` [Compound 136, (4-chlorophenyl)methyl N-(4-{[(5-methylpyrazin-2-yl)formamido]methyl}phenyl)carbamate], the “AC1.4 Human” value is 1.09 µM and the half-maximal effective concentration (EC50) was determined as 2.23 µM.

As for `CCc1cc(C(=O)N[C@@H](C)c2ccc(NC(=O)OCc3ccc(Cl)cc3)cc2)n(C)n1` [Compound 137, (4-chlorophenyl)methyl N-{4-[(1S)-1-[(5-ethyl-2-methylpyrazol-3-yl)formamido]ethyl]phenyl}carbamate], the “AC1.4 Human” value worked out at 1.11 µM and the EC50 is 3.83 µM.

In the case of `COc1cc(C(=O)NCc2ccc(NC(=O)OCc3ccc(Cl)cc3)cc2)n(C)n1` [Compound 138, (4-chlorophenyl)methyl N-(4-{[(5-methoxy-2-methylpyrazol-3-yl)formamido]methyl}phenyl)carbamate], the “AC1.4 Human” value was determined as 1.11 µM and the concentration giving a half-maximal response (EC50) is 8.41 µM.

With `Cc1cc(C(=O)N[C@@H](C)c2ccc(NC(=O)OCc3ccc(Cl)cc3)cc2)n(C)n1` [Compound 139, (4-chlorophenyl)methyl N-{4-[(1S)-1-[(2,5-dimethylpyrazol-3-yl)formamido]ethyl]phenyl}carbamate], the “AC1.4 Human” value was 1.11 µM and the EC50 came to 13.1 µM.

As to `Cc1noc(C(=O)NCc2ccc(NC(=O)OCc3ccc(Cl)cc3)cc2)c1C` [Compound 140, (4-chlorophenyl)methyl N-(4-{[(3,4-dimethyl-1,2-oxazol-5-yl)formamido]methyl}phenyl)carbamate], the “AC1.4 Human” value was 1.15 µM and the EC50 stood at 4.51 µM.

`Cc1nn(C)c(C(=O)N[C@@H](C)c2ccc(NC(=O)OCc3ccc(Cl)cc3)cc2)c1F` [Compound 141, (4-chlorophenyl)methyl N-{4-[(1S)-1-[(4-fluoro-2,5-dimethylpyrazol-3-yl)formamido]ethyl]phenyl}carbamate]: the “AC1.4 Human” value is 1.17 µM and the EC50 stood at 2.24 µM.

In the case of `Cc1cnoc1C(=O)N[C@@H](C)c1ccc(NC(=O)OCc2ccc(Cl)cc2)cc1` [Compound 142, (4-chlorophenyl)methyl N-{4-[(1S)-1-[(4-methyl-1,2-oxazol-5-yl)formamido]ethyl]phenyl}carbamate], the “AC1.4 Human” value worked out at 1.17 µM and the concentration giving a half-maximal response (EC50) was determined as 7.35 µM.

As for `C[C@@H](c1ccc(NC(=O)OCc2ccc(Cl)cc2)cc1)N(C)C(=O)N1CCCC1` [Compound 143, 4-chlorobenzyl (S)-(4-(1-(N-methylpyrrolidine-1-carboxamido)ethyl)phenyl)carbamate], the “AC1.4 Human” value came out at 1.18 µM and the 50% effective concentration (EC50) stood at 10.8 µM.

For the molecule `CC1CN(C(=O)N[C@@H](C)c2ccc(NC(=O)OCc3ccc(Cl)cc3)cc2)C1` [Compound 144, (4-chlorophenyl)methyl N-{4-[(1S)-1-(3-methylazetidine-1-carbonylamino)ethyl]phenyl}carbamate], the “AC1.4 Human” value was 1.18 µM and the concentration for a half-maximal effect (EC50) is 7.67 µM.

On to `CC1CCN(C(=O)N[C@@H](C)c2ccc(NC(=O)OCc3ccc(Cl)cc3)cc2)CC1` [Compound 145, 4-chlorobenzyl (S)-(4-(1-(4-methylpiperidine-1-carboxamido)ethyl)phenyl)carbamate], for which the “AC1.4 Human” value is 1.19 µM and the EC50 was 8.23 µM.

Regarding `Cc1ncc(C(=O)NCc2ccc(NC(=O)OCc3ccc(Cl)cc3)cc2)cc1F` [Compound 146, (4-chlorophenyl)methyl N-(4-{[(5-fluoro-6-methylpyridin-3-yl)formamido]methyl}phenyl)carbamate], the “AC1.4 Human” value came to 1.20 µM and the EC50 turned out to be 2.35 µM.

Turning to `O=C(Nc1ccc(CNC(=O)c2c(F)cncc2F)cc1)OCc1ccc(Cl)cc1` [Compound 147, (4-chlorophenyl)methyl N-(4-{[15.2 (3,5-difluoropyridin-4-yl)formamido]methyl}phenyl)carbamate], the “AC1.4 Human” value is 1.22 µM and the half-maximal effective concentration (EC50) stood at 5.21 µM.

In the case of `COC(=O)N1CCC(c2ccc(NC(=O)OCc3cnco3)cc2)CC1` [Compound 148, methyl 4-(4-(((oxazol-5-ylmethoxy)carbonyl)amino)phenyl)piperidine-1-carboxylate], the “AC1.4 Human” value was 1.23 µM and the concentration for a half-maximal effect (EC50) turned out to be 11.5 µM.

On to `C[C@H](NC(=O)c1ccnn1C)c1ccc(NC(=O)OCc2ccc(Cl)cc2)cc1` [Compound 149, (4-chlorophenyl)methyl N-{4-[(1S)-1-[(2-methylpyrazol-3-yl)formamido]ethyl]phenyl}carbamate], for which the “AC1.4 Human” value is 1.23 µM and the EC50 was determined as 7 µM.
